Data published in US5216001A, “Indole derivatives” (H. Lunbeck A/S, priority 1990, dated 1993).
pIC50: −log10 of the molar value. Where two headings read alike, the source gives them in different places.

Legend:
DA D-2 = molecular target: T1, DA D-2 (Rattus norvegicus, UniProt P61169); assay: antagonism of pergolide-induced circling behaviour in rats with unilateral 6-OHDA lesions; type: in vivo; details: sc, read-out: Pergolide rot. inhibition ED50, 2h (sc), 6-OHDA lesions, s.c., 2 h before pergolide
T1 construct: Male Wistar rats (Mol:Wist) weighing about 200 g at the time of operation are used; from tissue; host or cells: living male Wistar (Mol:Wist) rats with unilateral 6-OHDA lesions (in vivo, endogenous receptor)
Description: ANTAGONISM OF PERGOLIDE-INDUCED CIRCLING BEHAVIOUR IN RATS WITH UNILATERAL 6-OHDA LESIONS
Dopamine (DA) D-2 agonists induce contralateral circling behaviour in rats with 6-OHDA lesions. Pergolide-induced circling is antagonized by DA D-2 antagonists.
Male Wistar rats (Mol:Wist) weighing about 200 g at the time of operation are used. Unilateral lesions are made in pentobarbital anaesthetized rats by injection of 6-OHDA. HCl 9.7 μg/μl (equivalent to 8 μg free base) per 4 min. into the rostral tip of the substantia nigra. The saline solution contains ascorbic acid 0.2 mg/ml, is bubbled with N2 and is kept ice-cold. The experiments are done when stable contralateral circling responses to pergolide (0.05 μmol/kg, s.c.) are obtained. The circling response is measured in rotometer bowls. Only rats showing more than 400 complete turns in 2 hrs control session are used. Dose-response curves are obtained by alternating test and control sessions on a weekly basis. The antagonists are injected s.c. 2 hrs before the agonist. The effect of individual doses of test drugs is calculated as per cent of the mean effect of control sessions one week before and one week after the test session for each rat. ED50 values are calculated by log-probit analysis. Four to eight rats are used at each dosage.

5-HT2 [1] = molecular target: T2, 5-HT2 (Rattus norvegicus, UniProt P14842); assay: quipazine inhibition (quipazine-induced head twitches in rats); type: in vivo
T2 construct: Four rats, male Wistar (Mol:Wist) SPF rats weighing 170-240 g; from tissue; host or cells: living male Wistar (Mol:Wist) SPF rats (in vivo, endogenous receptor)
Description: Quipazine is a 5-HT2 agonist, which induces head twitches in rats. The test is a test for 5-HT2 -antagonistic effect testing the ability to inhibit head twitches. The method and test results for some reference substances are published by Arnt et al. (Drug Development Research, 16, 59-70, 1989).
Test substance is injected s.c. 2 hrs before or p.o. 24 hrs before quipazine administration (6.8 mg/kg, s.c., dimaleate). Four rats, male Wistar (Mol:Wist) SPF rats weighing 170-240 g, are used at each dose level. A control group is included each test day. By repeated testing (2, 24 hrs) the control group is the same, however. After quipazine administration the rats are individually placed in the observation cages and head twitches are counted in an observation period of 30-40 min. after injection of quipazine.
Total number of head twitches in each group is calculated and the result for each dose is expressed as per cent of the response in the control group. ED50 values are calculated by log-probit analysis. The test must be repeated if the average number of head twitches is lower than 9 in the control group.

[2] = molecular target: T3, serotonin S2 (5-HT2) receptors (Rattus norvegicus, UniProt P14842); assay: inhibition of 3H-ketanserin binding to serotonin S2 (5-HT2) receptors in rat cortex in vitro; details: 3H-ketanserin 0.5 nM, rat cortex membranes, read-out: Binding IC50, 3H Ket.
T3 construct: cortical tissue is dissected and weighed; from tissue; host or cells: cerebral cortex membranes of male Wistar (Mol:Wist) rats

α1 adrenoceptors = assay: inhibition of 3H-prazosin binding to α1 adrenoceptors in rat brain in vitro; details: 3H-prazosin 0.25 nM, rat brain membranes, read-out: Binding IC50, 3H Praz.
Description: INHIBITION OF ^3 H-PRAZOSIN BINDING TO α1 ADRENOCEPTORS IN RAT BRAIN IN VITRO
Method and results in Hyttel and Larsen, J. Neurochem, 44, 1615-1622, 1985; Skarsfeldt and Hyttel, Eur. J. Pharmacol. 125, 323-340, 1986.
(§1) Male Wistar (Mol:Wist) rats (125-200 g) are sacrificed and brain tissue is dissected and weighed. The tissue is homogenized (Ultra Turrax, 10 sec.) in 10 ml of ice-cold 50 nM Tris buffer pH 7.7 (at 25° C.). The homogenate is centrifuged twice at 20,000 g for 10 min. at 4° C. with rehomogenization of the pellet in 10 ml ice-cold buffer. The final pellet is homogenized in 400 vol (w/v) ice-cold buffer.
Incubation tubes kept on ice in triplicate receive 100 μl of drug solution in water (or water for total binding) and 4000 μl of tissue suspension (final tissue content corresponds to 10 mg original tissue). The binding experiment is initiated by addition of 100 μl of ^3 H-Prazosin (final concentration 0.25 nM) and by placing the tubes in a 25° C. water bath. After incubation for 20 min. the samples are filtered under vacuum (0-50 mBar) through Whatman GF/F filters (25 mm). The tubes are rinsed with 5 ml ice-cold buffer which then are poured on the filters. Thereafter, the filters are washed with 5 ml of buffer. The filters are placed in counting vials and 4 ml of appropriate scintillation fluid (e.g. Picofluor™15) are added. After shaking for 1 h and storage 2 hrs in the dark the content of radioactivity is determined by liquid scintillation counting. Specific binding is obtained by subtracting the nonspecific binding in the presence of 1 μM of Prazosin.
(§2) For determination of the inhibition of binding five concentrations of drugs covering 3 decades are used.
The measured cpm are plotted against drug concentration on semilogarithmic paper and the best fitting S-shaped curve is drawn. The IC50 value is determined as the concentration at which the binding is 50% of the total binding in control samples minus the nonspecific binding in the presence of 1 μM of Prazosin. ^3 H-Prazosin=[furoyl-5-^3 H]-Prazosin from New England Nuclear, specific activity approximately 20 Ci/mmol.

dopamine D-2 receptors = molecular target: T4, dopamine D-2 receptors (Rattus norvegicus, UniProt P61169); assay: inhibition of 3H-spiperone binding to dopamine D-2 receptors in rat corpus striatum in vitro; details: 3H-spiperone 0.5 nM, rat corpus striatum membranes, in vitro; read-out: Binding IC50, 3H Spi.
T4 construct: striatal tissue is dissected and weighed; from tissue; host or cells: corpus striatum membranes of male Wistar rats
Description: INHIBITION OF ^3 H-SPIPERONE BINDING TO DOPAMINE D-2 RECEPTORS IN RAT CORPUS STRIATUM IN VITRO
By this method the inhibition by drugs of the binding of ^3 H-spiperone (0.5 nM) to dopamine D-2 receptors in membranes from rat corpus striatum is determined in vitro. Method and results in Hyttel and Larsen, J. Neurochem, 44, 1615-1622, 1985).
as §1, with “(Mol:Wistar)” for “(Mol:Wist)”, “(125-250” for “(125-200”, “striatal” for “brain”, “mM K-phosphate” for “nM Tris”, “7.4” for “7.7”, “1300” for “400”
Incubation tubes kept on ice in triplicate receive 100 μl of drug solution in water (or water for total binding) and 4000 μl of tissue suspension (final tissue content corresponds to 3.08 mg original tissue). The binding experimental is initiated by addition of 100 μl of ^3 H-spiperone (final concentration 0.5 nM) and by placing the tubes in a 37° C. water bath. After incubation for 10 min. the samples are filtered under vacuum (0-50 mBar) through Whatman GF/F filters (25 mm). The tubes are rinsed with 5 ml ice-cold buffer which are then poured on the filters. Thereafter, the filters are washed with 2×5 ml of buffer. The filters are placed in counting vials and 4 ml of appropriate scintillation fluid (e.g. Picofluor ™15) are added. After shaking for 1 h and storage 2 hrs in the dark the content of radioactivity is determined by liquid scintillation counting. Specific binding is obtained by subtracting the nonspecific binding in the presence of 10 μM of 6,7-ADTN.
as §2
England, specific activity 15-25 Ci/mmol.

[3] = Janssen 1988; cited from earlier work
[4] = Klieser and Strauss 1988; cited from earlier work
5-HT2 [5] = molecular target: T2, 5-HT2; assay: quipazine inhibition (quipazine-induced head twitches in rats); type: in vivo; details: sc, s.c. (marked in cell), 24 h before quipazine, read-out: Quipazine inhibition ED50, 24h (sc)
[6] = animal test, Colpart et al. 1985; cited from earlier work
[7] = Bersani et al. 1990; cited from earlier work
[8] = sc, 2 h, read-out: Quipazine inhibition ED50, 2h (sc)
[9] = sc, read-out: Quipazine inhibition ED50, 2h (sc), s.c., 2 h before quipazine

T3 sequence (P14842 whole entry): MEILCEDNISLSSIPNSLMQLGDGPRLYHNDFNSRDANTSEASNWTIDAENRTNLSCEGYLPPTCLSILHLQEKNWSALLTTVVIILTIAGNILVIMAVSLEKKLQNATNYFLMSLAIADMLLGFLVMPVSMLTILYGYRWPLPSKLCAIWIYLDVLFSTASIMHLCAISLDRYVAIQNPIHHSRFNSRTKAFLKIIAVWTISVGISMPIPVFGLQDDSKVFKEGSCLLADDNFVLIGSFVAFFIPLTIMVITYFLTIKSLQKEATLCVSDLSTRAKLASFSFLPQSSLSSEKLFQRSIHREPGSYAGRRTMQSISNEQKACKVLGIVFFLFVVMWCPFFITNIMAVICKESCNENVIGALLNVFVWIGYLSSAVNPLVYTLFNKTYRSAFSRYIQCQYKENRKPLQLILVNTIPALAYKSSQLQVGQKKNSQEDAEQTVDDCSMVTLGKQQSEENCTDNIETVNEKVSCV
T2 sequence (P14842 whole entry): as above
T4 sequence (P61169 whole entry): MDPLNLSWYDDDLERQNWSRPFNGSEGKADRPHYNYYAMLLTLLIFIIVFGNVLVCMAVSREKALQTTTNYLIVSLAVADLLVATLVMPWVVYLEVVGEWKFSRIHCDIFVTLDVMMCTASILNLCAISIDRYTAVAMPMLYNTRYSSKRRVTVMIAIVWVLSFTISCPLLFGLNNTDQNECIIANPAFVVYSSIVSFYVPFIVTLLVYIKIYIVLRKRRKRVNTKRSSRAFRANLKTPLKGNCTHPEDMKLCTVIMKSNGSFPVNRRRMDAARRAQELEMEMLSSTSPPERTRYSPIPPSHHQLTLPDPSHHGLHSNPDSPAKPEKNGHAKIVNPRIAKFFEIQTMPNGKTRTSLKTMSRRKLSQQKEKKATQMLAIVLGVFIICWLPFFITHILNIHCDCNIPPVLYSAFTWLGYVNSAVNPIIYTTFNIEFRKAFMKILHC
T1 sequence (P61169 whole entry): as above

| Structure (SMILES) | ED50 (DA D-2) | ED50 (5-HT2 [1]; [8]) | pIC50 [2] | pIC50 (α1 adrenoceptors) | pIC50 (dopamine D-2 receptors) | also measured |
| --- | --- | --- | --- | --- | --- | --- |
| O=C1NCCN1CCN1CCC(c2cn(-c3ccc(F)cc3)c3cc(Cl)ccc23)CC1 [Compound 4b, 6-chloro-1-(4-fluorophenyl)-3-[1-[2-(2-imidazolidinon-1yl)ethyl]-4-piperidyl]-1H-indole] | > 23 µmol/kg | 0.06 µmol/kg | 8.85 |  |  |  |
| O=C1NCCN1CCN1CCC(c2cn(-c3ccc(F)cc3)c3cc(Cl)c(Cl)cc23)CC1 [Compound 5f, 5,6-dichloro-1-(4-fluorophenyl)-3-[1-[2-(2-imidazolidinon-1-yl)ethyl]-4-piperidyl]-1H-indole] | > 42 µmol/kg | 0.12 µmol/kg | 8.46 |  |  | ED50 (5-HT2 [1]; po, 24 h, read-out: Quipazine inhibition ED50, 24h (po)): 0.04 µmol/kg |
| Cc1ccc2c(N3CCN(CCN4CCN(C(C)C)C4=O)CC3)cn(-c3ccc(F)cc3)c2c1 [Compound 6b, 1-(4-fluorophenyl)-6-methyl-3-[4-[2-[3-(2-propyl)-2-imidazolidinon-1-yl]ethyl]-1-piperazinyl]-1H-indole] |  | 0.04 µmol/kg | 8.57 | 7.12 | 6.74 |  |
| Cc1ccc2c(C3CCN(CCN4CCN(C(C)C)C4=O)CC3)cn(-c3ccccc3)c2c1 [Compound 15a] |  | 0.01 µmol/kg | 8.70 | 6.92 | 6.30 |  |
| CC(C)N1CCN(CCN2CCC(c3cn(-c4ccccc4F)c4cc(Cl)ccc34)CC2)C1=O [Compound 15j, 6-chloro-1-(2-fluorophenyl)-3-[1-[2-[3-(2-propyl)-2-imidazolidinon-1-yl]ethyl]-4-piperidyl]-1H-indole] |  | 0.08 µmol/kg | 8.43 | 6.92 | 6.52 |  |
| CN(C)CCSc1nc2ccccc2cc1-c1ccccc1 [ICI 169369, reference compound] |  | > 3.6 µmol/kg | 7.82 | 6.52 | 6.31 |  |
| Cc1nc2sccn2c(=O)c1CCN1CCC(=C(c2ccc(F)cc2)c2ccc(F)cc2)CC1 [ritanserin] | > 21 µmol/kg |  |  | 7.33 |  | quality of sleep [3]: improve the quality of sleep; antidepressant effect and depressive symptoms of schizophrenia [4]: has been shown to be an antidepressant and to improve depressive symptoms of schizophrenia; ED50 (5-HT2 [5]): 0.98 µmol/kg; effects reminiscent of anxiolytic drug activity [6]: exert effects in an animal test reminiscent of anxiolytic drug activity; ED50 (5-HT2 [1]; [9]): 0.08 µmol/kg; neuroleptic-induced parkinsonism [7]: relieve neuroleptic-induced parkinsonism |
| O=C1NCCN1CCN1CCC(c2cn(-c3ccc(F)cc3)c3ccc(Cl)cc23)CC1 [sertindole (Lu 23-174), 5-chloro-1-(4-fluorophenyl)-3-[1-[2-(2-imidazolidinon-1-yl)ethyl]-4-piperidyl]-1H-indole, reference compound] | 7.2 µmol/kg |  |  | 8.47 |  | Quipazine inhibition ED50, 24h (po) (5-HT2 [1]; p.o., 24 h before quipazine): 0.04 µmol/kg; ED50 (5-HT2 [1]; [9]): 0.04 µmol/kg |
